From ChEMBL document CHEMBL3045156, “Synthesis and fungicidal evaluation of 2-arylphenyl ether-3-(1H-1,2,4-triazol-1-yl)propan-2-ol derivatives” (2009) come the findings set out here.

Format in all cases: functional
What all share (conditions): read-out: GI

Assay [1] deals with Fusarium graminearum. Briefly: Fungicidal activity against Fusarium graminearum assessed as growth inhibition at 50 ug/mL.
For assay [2], the system named is Alternaria solani. The experiment in a line: Fungicidal activity against Alternaria solani assessed as growth inhibition at 5 ug/mL.
The test system of assay [3] is Fusarium graminearum. The experiment in a line: Fungicidal activity against Fusarium graminearum assessed as growth inhibition at 1 ug/mL.
Assay [4] has as its system Mycosphaerella arachidis. Briefly: Fungicidal activity against Mycosphaerella arachidis assessed as growth inhibition at 1 ug/mL.
Assay [5] deals with Mycosphaerella arachidis. Briefly: Fungicidal activity against Mycosphaerella arachidis assessed as growth inhibition at 5 ug/mL.
The test system of assay [6] is Botryosphaeria berengeriana. Briefly: Fungicidal activity against Botryosphaeria berengeriana assessed as growth inhibition at 50 ug/mL.
For assay [7], the system named is Fusarium oxysporum. The experiment in a line: Fungicidal activity against Fusarium oxysporum assessed as growth inhibition at 50 ug/mL.
The subject of assay [8] is Fusarium graminearum. Briefly: Fungicidal activity against Fusarium graminearum assessed as growth inhibition at 5 ug/mL.
The test system of assay [9] is Alternaria solani. The experiment in a line: Fungicidal activity against Alternaria solani assessed as growth inhibition at 50 ug/mL.
Assay [10] concerns Fusarium oxysporum. Briefly: Fungicidal activity against Fusarium oxysporum assessed as growth inhibition at 1 ug/mL.
In assay [11] the test system is Botryosphaeria berengeriana. The experiment in a line: Fungicidal activity against Botryosphaeria berengeriana assessed as growth inhibition at 1 ug/mL.
The subject of assay [12] is Botryosphaeria berengeriana. Briefly: Fungicidal activity against Botryosphaeria berengeriana assessed as growth inhibition at 5 ug/mL.
In assay [13] the test system is Alternaria solani. Briefly: Fungicidal activity against Alternaria solani assessed as growth inhibition at 1 ug/mL.
Assay [14] relates to Mycosphaerella arachidis. Briefly: Fungicidal activity against Mycosphaerella arachidis assessed as growth inhibition at 50 ug/mL.
Assay [15] has as its system Fusarium oxysporum. The experiment in a line: Fungicidal activity against Fusarium oxysporum assessed as growth inhibition at 5 ug/mL.

`OC(Cn1cncn1)(Cn1cncn1)c1ccc(Oc2ccc(Cl)cc2)cc1Cl`: the inhibition of growth at 50 µg/mL in assay [1] stood at 100%; in assay [6], 100%; in assay [7], 99%; in assay [9], 99%; in assay [14], 100%. Further, the inhibition of growth at 5 µg/mL in assay [2] was 84.2%; in assay [5] it was 100%; in assay [8], 100%; in assay [12] it was 91%; in [15], 80.9%. For the same molecule, the inhibition of growth at 1 µg/mL in [3] amounted to 82.6%; in assay [4], 88.1%; in [10], 62.5%; in [11], 90.3%; in assay [13] it was 58.6%.
As to `CN(C)CC(O)(Cn1cncn1)c1ccc(Oc2ccc(Cl)cc2)cc1Cl` (stereo not given), the inhibition of growth at 50 µg/mL in assay [1] is 96.9%; in assay [6] it was 100%; in assay [7] it was 100%; in [9], 99.1%; in assay [14], 97.2%. The inhibition of growth at 1 µg/mL in assay [3] turned out to be 4.2%; in assay [4] it was 0%; in [10], 0%; in assay [11] it was 27.7%; in [13] it was 18.6%.
For `CC1COC(Cn2cncn2)(c2ccc(Oc3ccc(Cl)cc3)cc2Cl)O1` (stereo not given) [DIFENOCONAZOLE], the inhibition of growth at 50 µg/mL in [1] worked out at 100%; in assay [6], 100%; in [7], 99.9%; in assay [9], 99.2%; in assay [14], 100%. The inhibition of growth at 1 µg/mL was 73.9% in assay [3]; 56.7% in assay [4]; 53.1% in [10]; 69.7% in [11]; 95% in [13].
In the case of `CC(C)(C)C(O)(CCc1ccc(Cl)cc1)Cn1cncn1` (stereo not given) [TEBUCONAZOLE], the inhibition of growth at 50 µg/mL in [1], in assay [6], in [7], in [9] and in assay [14] was 100% throughout. The inhibition of growth at 1 µg/mL in assay [3] is 86.9%; in assay [4], 91%; in assay [10], 65.6%; in [11] it was 68.2%; in assay [13], 65.5%.
